The text below walks through data of patent publication US7863278B2, “Isethionate salt of a selective CDK4 inhibitor” (Warner-Lambert CompanyLLC, priority 2003, dated 2011).

The structures appear in SMILES notation. Like-named read-outs stand apart in the source and are kept apart here.

Data set [1] relates to neointima formation. The following applies: rats; cited from earlier work.
Data set [2] in a line: water solubility. In kind it is physicochemical. The note with it: for solubility at 14 h: thermodynamic from solid. The source says: The other isethionate salt forms were not evaluated for metastable solubility. […] See Table 5 for a list of HPLC conditions.
Data set [3] in a line: bioavailability in animal studies. The class given is in vivo. The source says: . However, moisture uptake studies reveal that, even at low relative humidity (10% RH), the di-HCl salt absorbs water in an amount greater than about 2% of its mass, making it unsuitable for use in a solid drug product. […]. However, the process for preparing the mono-HCl salt yields partially crystalline drug substance, indicating potential problems with process scale-up. Other salt forms of the compound of Formula 1 are thus needed.

A short description of data set [4]: pKa of conjugate acid. In kind it is physicochemical. The source says: The free base (Formula 1) is a dibasic compound, which may form both mono- and di-acid addition salts. Its conjugate acid has pKas of 7.3 and 4.1, so comparatively strong acids are necessary for generating the di-salt. Though it may be possible to form a di-isethionate salt of the compound of Formula 1, the mono-isethionate salt appears to be more useful since it requires less counter ion.

Consider `COc1ccc(CNc2nc(N(CCO)CCO)nc3c2ncn3C(C)C)cc1` [CVT-313], for which the “inhibition of neointima formation” value in data set [1] is given as “greater than 80%”.
Regarding `CC(=O)c1c(C)c2cnc(Nc3ccc(N4CCNCC4)cn3)nc2n(C2CCCC2)c1=O` [Formula 1, 6-acetyl-8-cyclopentyl-5-methyl-2-(5-piperazin-1-yl-pyridin-2-ylamino)-8H-pyrido[2,3-d]pyrimidin-7-one], in data set [2] (free base final pH 7.9, 14 h equilibration), the “Solubility mgA/mL” value was found to be 0.009 mgA/mL. In addition, the solubility at 14 h is 9.2 µg/mL in data set [2] (pH 7.9, water, read-out: free base solubility) and 9 µg/mL in data set [2] (read-out: water solubility). Further, in data set [3], the “bioavailability in animal studies” value is reported as “low bioavailability”. For the same molecule, the pKa was determined as 7.3 in data set [4] (read-out: pKa of conjugate acid (first)) and 4.1 in data set [4] (read-out: pKa of conjugate acid (second)).
As for `CC(=O)c1c(C)c2cnc(Nc3ccc(N4CCNCC4)cn3)nc2n(C2CCCC2)c1=O.Cl.Cl` [di-HCl salt], in data set [2], the “water solubility (in words)” value is “adequate water solubility”.

One may read the solubility as the dissolved amount per volume that the medium holds. A word on the pKa: it is the negative logarithm of the acid dissociation constant.
